Results taken from article PMC7615343, “Fluorination Influences the Bioisostery of Myo-Inositol Pyrophosphate Analogs” (Chemistry (Weinheim an der Bergstrasse, Germany), 2023).

Key:
[1] = target: T1, PPIP5K2^1-366 (human PPIP5K2 kinase domain) (Homo sapiens, UniProt O43314); test: Isothermal titration calorimetry of ligand binding to PPIP5K2KD; conditions: ITC, 25°C; for ΔH / ΔS: 7.5 μM PPIP5K2^1-366, 75 μM ligand, pH 7.2; for Kd: 7.5 μM PPIP5K2^1-366 in cell, 75 μM ligand in syringe, pH 7.2, 1mM AMP-PNP, 1mM MgCl2, read-out: Kd (apparent)
T1 construct: one comprised residues 1–366; made in house
T1 sequence (O43314 1-366): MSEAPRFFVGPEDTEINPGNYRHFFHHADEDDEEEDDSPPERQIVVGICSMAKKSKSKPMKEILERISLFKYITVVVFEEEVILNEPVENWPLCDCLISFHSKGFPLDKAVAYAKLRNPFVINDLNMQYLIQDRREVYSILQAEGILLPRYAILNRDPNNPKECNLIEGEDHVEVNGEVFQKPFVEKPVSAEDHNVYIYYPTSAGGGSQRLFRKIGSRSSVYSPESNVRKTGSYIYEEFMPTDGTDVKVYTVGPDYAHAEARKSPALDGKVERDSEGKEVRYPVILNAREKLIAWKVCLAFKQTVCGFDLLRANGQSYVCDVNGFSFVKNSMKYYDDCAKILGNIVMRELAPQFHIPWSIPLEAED
Excerpt: We next used isothermal titration calorimetry (ITC) to analyze the interactions of PPIP5K2^KD with 5PP-IP5 and each of the four analogs studied herein (Figure 5A-E). […] At the same time, the enthalpic gain for binding was largest for 5PCF2Am-IP5 and 5PA-IP5. A possible explanation may be that these two ligands are less strongly hydrated, due to their lower overall charge. The enthalpic cost for dehydration of 5PCF2Am-IP5 and 5PA-IP5 is therefore lower, compared to the other molecules, resulting in a higher enthalpic gain overall. A less strongly hydrated ligand will also release fewer water molecules upon binding, consistent with the lower entropic gains.
Figure 5 Analysis of ligand binding to the PPIP5K2^KD by ITC. Test solutions contained 7.5 μM of PPIP5K2^1-366 in the sample cell and 75 μM ligand in the syringe. Other details are provided in the Methods Section. Representative thermograms (1 of 3 replicates) are shown for titration of either (A) 5PP-IP5; (B) 5PCPF2P-IP5; (C) 5PCP-IP5; (D) 5PCF2Am-IP5; (E) 5PA-IP5. (F) Corresponding thermodynamic data. TEXT PRINTED IN THE PICTURE: (F) 5PP-: Kd (nM): 123 ± 13; ΔH (kJ/mol): -26 ± 2; ΔS (kJ/mol/deg): 0.046 ± 0.008 | (F) 5PCF2-: Kd (nM): 246 ± 10; ΔH (kJ/mol): -16 ± 1; ΔS (kJ/mol/deg): 0.072 ± 0.005 | (F) 5PCP-: Kd (nM): 100 ± 10; ΔH (kJ/mol): -20 ± 2; ΔS (kJ/mol/deg): 0.067 ± 0.016 | (F) 5PCF2-Am-: Kd (nM): 90 ± 13; ΔH (kJ/mol): -38 ± 2; ΔS (kJ/mol/deg): 0.007 ± 0.004 | (F) 5PA-: Kd (nM): 90 ± 7; ΔH (kJ/mol): -36 ± 3; ΔS (kJ/mol/deg): 0.013 ± 0.008 […]
(§1) Calorimetry experiments were performed using a MicroCal PEAQ-ITC (Malvern Panalytical) with 7.5 μM recombinant PPIP5K21-366 in the sample cell and 75 μM of ligand in the syringe, each of which was maintained at 25°C in buffer containing 20 mM HEPES, pH 7.2, 150 mM KCl, 0.05 mM EDTA, 1mM AMP-PNP, 1mM MgCl2 as indicated. The sample cell (volume = 204 μL) and the syringe were cleaned before each run. Thermograms were constructed from 13 injections, each of which involved 3 μL of ligand delivered for 6 s, with an equilibration time of 150-300 s between each injection. The stirring speed was set to 750 rpm. Data were fitted to a single binding site model using the analysis software provided by the manufacturer. At least three runs were performed for each condition.
Protein expression and purification.
Throughout the main text, PPIP5K2KD is deployed as an abbreviation for the human PPIP5K2 kinase domain. However, two different constructs were utilized, as described in the figure legends and within the Methods section below: one comprised residues 1–366 (PPIP5K21-366) and the other comprised residues 41–366 (PPIP5K241-366). Both constructs were expressed and purified as described previously.[6] The human DIPP1 construct (residues 1-148) was expressed and purified as described in [7]. […]
The molecular graphics representations wer e prepared with the program PyMol (Schrödinger, LLC). Atomic coordinates an d structure factors have been deposited with the Protein Data Bank with accession codes 8G9C, 8G9D, 8G9E.
PPIP5K2KD reverse kinase assay […]
Isothermal titration calorimetry
as §1, with “PPIP5K21–366” for “PPIP5K21-366”, “2 04 µL)” for “204 μL)”, “µL” for “μL”, “150 -300” for “150-300”, “cond ition. […]” for “condition.”

[2] = target: T1, PPIP5K2^1-366 (human PPIP5K2 kinase domain); conditions: published value; read-out: IC50, inhibition of the reverse kinase activity of PPIP5K2KD; cited from earlier work

ΔH [1] | ΔS [1] | Kd [1] | Structure (SMILES) | IC50 [2]
-8.6 ± 0.72 kcal/mol | 0.013 ± 0.008 kJ/mol/deg | 90 ± 7 nM | O=C(CP(=O)(O)O)O[C@@H]1[C@@H](OP(=O)(O)O)[C@H](OP(=O)(O)O)[C@H](OP(=O)(O)O)[C@H](OP(=O)(O)O)[C@H]1OP(=O)(O)O [5PA-IP5] | 129 nM
-6.21 ± 0.48 kcal/mol | 0.046 ± 0.008 kJ/mol/deg | 123 nM | O=P(O)(O)O[C@H]1[C@@H](OP(=O)(O)O)[C@H](OP(=O)(O)O)[C@@H](OP(=O)(O)OP(=O)(O)O)[C@H](OP(=O)(O)O)[C@H]1OP(=O)(O)O [5PP-IP5, 5-diphosphoinositol pentakisphosphate] | 

Structure (SMILES) | ΔH [1] | ΔS [1] | Kd [1] | IC50 [2]
O=C(N[C@@H]1[C@@H](OP(=O)(O)O)[C@H](OP(=O)(O)O)[C@H](OP(=O)(O)O)[C@H](OP(=O)(O)O)[C@H]1OP(=O)(O)O)C(F)(F)P(=O)(O)O [5PCF2Am-IP5] | -9.08 ± 0.48 kcal/mol | 0.007 ± 0.004 kJ/mol/deg | 90 ± 13 nM | 
